# Patent US12473291B2 (priority 2019, dated 2025)
# Where a name gives a salt, the structure may show the parent alone. Read-outs that look alike come from different tables or passages of the source.
# Legend:
# KM mice = assay: animal or person; type: in vivo
# SD rats = assay: animal or person; type: in vivo
# [1] = KM mice, single tail vein injection at 2×ED50, time from disappearance to recovery of righting reflex
# [2] = KM mice, single tail vein injection at 2×ED50, time from recovery of righting reflex to free crawling
# [3] = Mus musculus, KM mice (male, 18-22 g), injection via the tail vein, disappearance of righting reflex, read-out: ED50
# [4] = Rattus norvegicus, SD rats (male, 220-300 g), injection via the tail vein, disappearance of righting reflex, read-out: ED50
# [5] = SD rats, single tail vein injection at 2×ED50, time from disappearance to recovery of righting reflex
# [6] = SD rats, single tail vein injection at 2×ED50, time from recovery of righting reflex to free crawling
Compound,2ED50 duration (KM mice; [1]) [min],2ED50 recovery time (KM mice; [2]) [min],"Quality of recovery (KM mice; KM mice, tail vein injection)",ED50 (KM mice; [3]) [mg/kg],ED50 (SD rats; [4]) [mg/kg],2ED50 duration (SD rats; [5]) [min],2ED50 recovery time (SD rats; [6]) [min],"Quality of recovery (SD rats; SD rats, tail vein injection)","ED50 (KM mice; KM mice (male, 18-22 g), injection via the tail vein, disappearance of righting reflex) [mg/kg]","ED50 (SD rats; SD rats (male, 220-300 g), injection via the tail vein, disappearance of righting reflex) [mg/kg]","2ED50 duration (KM mice; mouse, in vivo) [min]","2ED50 recovery time (KM mice; mouse, in vivo) [min]","ED50 (KM mice; mouse, in vivo) [mg/kg]","Quality of recovery (KM mice; mouse, in vivo)","2ED50 duration (SD rats; rat, in vivo) [min]","2ED50 recovery time (SD rats; rat, in vivo) [min]","ED50 (SD rats; rat, in vivo) [mg/kg]","Quality of recovery (SD rats; rat, in vivo)"
"COc1cc(C)cc2c1-n1c(C)cnc1[C@H](CCC(=O)OC1(C(=O)OC(C)C)CC1)N=C2c1ccccn1 [Example 80, Isopropyl 1-((3-((4S)-10-methoxy-1,8-dimethyl-6-(pyridine-2-yl)-4H-benzo[f]imidazo[1,2-a][1,4]diaza-4-yl)propionyl)oxy) cyclopropane-1-carboxylate methyl sulfate]",3.56,2.01,+++ (“+++” means 3-5 min),30.9,6.7,2.36,2.18,++ (“++” means 1-3 min),–,–,–,–,–,–,–,–,–,–
"CCOC(=O)C(C)OC(=O)CC[C@@H]1N=C(c2ccccn2)c2cc(C)c(OC)cc2-n2c(C)cnc21 (stereo partly drawn) [Example 81, 1-Ethoxy-1-oxopropane-2-yl3-((4S)-9-methoxy-1,8-dimethyl-6-(pyridine-2-yl)-4H-benzo[f]imidazo[1,2-a][1,4]diaza-4-ylpropionate malonate]",3.49,2.43,+++ (“+++” means 3-5 min),31.1,6.2,2.43,2.09,+++ (“+++” means 3-5 min),–,–,–,–,–,–,–,–,–,–
COC(=O)C(OC(=O)CC[C@@H]1N=C(c2ccccn2)c2cc(Cl)cc(OC(F)(F)F)c2-n2c(C)cnc21)C1CCCCCCCCC1 (some centres unmarked) [Example 82],3.54,2.13,+++ (“+++” means 3-5 min),29.8,5.8,2.15,2.10,++ (“++” means 1-3 min),–,–,–,–,–,–,–,–,–,–
COC1N(C)CC(CC(OC(=O)CC[C@@H]2N=C(c3ccccn3)c3cc(OC(F)(F)F)cc(C)c3-n3c(C)cnc32)OC(=O)OC(C(C)C)C(C)C)CN1C (some centres unmarked) [Example 83],3.26,2.46,+++ (“+++” means 3-5 min),30.1,6.1,2.09,2.09,+++ (“+++” means 3-5 min),–,–,–,–,–,–,–,–,–,–
"C/C=C/C1CC(OCOC(=O)COC(=O)CC[C@@H]2N=C(c3ccccn3)c3cc(Br)c(Cl)cc3-n3c(C)cnc32)C(Br)CC1C(F)(F)F (stereo partly drawn) [Example 84, 2-(((2-Bromo-5-((E)-propan-1-en-1-yl)-4-(trifluoromethyl)cyclohexyl)oxy)methoxy)-2-oxoethyl-3-((4S)-8-bromo-9-chloro-1-methyl-6-(pyridine-2-yl)-4H-benzo[f]imidazo[1,2-a][1,4]diaza-4-yl)propionate]",3.16,2.17,+++ (“+++” means 3-5 min),28.8,6.23,2.18,1.58,++ (“++” means 1-3 min),–,–,–,–,–,–,–,–,–,–
"COC(=O)CC[C@@H]1N=C(c2ccccn2)c2cc(Br)ccc2-n2c(C)cnc21 [Remimazolam, reference compound]",8.58,5.49,+++++ (“+++++” means >10 mm),–,–,7.58,6.46,+++++ (“+++++” means >10 min),40,8.9,–,–,–,–,–,–,–,–
"(((((3-Methylbutane-2-yl)oxy)carbonyl)oxy) methyl 3-((4S)-9-bromo-8-fluoro-1-methyl-6- (pyridine-2-yl)-4H-benzo[f]imidazo [1,2-a][1,4]diaza-4-ylpropionate formate [Example 73]",–,–,–,–,–,–,–,–,–,–,3.33,2.38,26.3,+++ (key: “+” means <1 mm; “++” means 1-3 min; “+++” means 3-5 min; “++++” means 5-10 min; “+++++” means >10 mm),2.45,2.44,5.2,++ (key: “+” means <1 mm; “++” means 1-3 min; “+++” means 3-5 min; “++++” means 5-10 min; “+++++” means >10 mm)
